Laboratory results reported in patent US12053459B2, “CDK2 inhibitors and methods of using the same” (Cedilla Therapeutics, Inc., priority 2021, dated 2024).

What was measured:
[1] = tested on: Kuramochi cells; assay: Incucyte cell proliferation assay, Kuramochi cells labeled with mApple-H2B; type: cell-based; details: class symbols A-D
Method: Kuramochi cells labeled with mApple-H2B and Kuramochi RB1−/− cells labeled with NucLight green (Sartorius, 4475) were co-plated on 384-well assay-ready plates along with test compounds at varying concentrations. Plates were placed in the IncuCyte® Sartorius and scanned at 0 and 72 hours. IncuCyte® software was used to count the number of fluorescent nuclei in each well. The fold change in cell count from 0 to 72 hours in wells treated with increasing compounds concentrations (10 pts, ½ log dilution, 20 uM top concentration) was normalized to DMSO control wells. The normalized cell counts were fit with dose response curves and a GI50 was calculated.

[2] = molecular target: T1, CDK2/Cyclin E1(14-475) (Homo sapiens, UniProt P24941); assay: Caliper LabChip EZ Reader mobility shift assay, inhibition of CDK2/Cyclin E1 activity; type: biochemical; details: class symbols A-D
How it was run: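 CDK2/Cyclin E1(14-475) pre-incubated 30 min with compound and ATP, then reaction started with 5-FAM-QSPKKG-CONH2; final 2.5 nM enzyme, 100 μM ATP, 1.5 μM peptide, HEPES pH 7.5. Stopped with EDTA after 100 min; substrate/product conversion by capillary electrophoresis mobility shift, IC50 from four-parameter fit.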

[3] = tested on: Kuramochi cells; assay: BrdU cell proliferation assay (colorimetric ELISA), Kuramochi cells; type: cell-based; details: class symbols A-D
How it was run: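 Kuramochi cells (2,000/well, with Kuramochi RB^KO cells as a specificity control) were treated with a 4-point, 3-fold dilution series made from 10 mM compound stocks and left for 4 days at 37 °C. Proliferation was measured by 1 h BrdU labelling, then anti-BrdU peroxidase ELISA read at 450 nm. Signals were background-subtracted and normalized to DMSO wells.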

[4] = molecular target: T1, CDK2/Cyclin E1(14-475); assay: HotSpot kinase inhibition assay (radiometric, Reaction Biology Corporation); type: biochemical; details: 10 μM ATP, class symbols A-D
Method: Inhibition of a select panel of CDK2/CCNE1 activities in the presence of compounds of the present disclosure was evaluated using the HotSpot™ assay (proprietary to Reaction Biology Corporation). In the assay, activated CDK2/Cyclin E1 catalyzes the transfer of radioactive phosphate to amino acid residues of peptide or protein substrates, which are detected radiometrically. […] Reactions contained 20 mM HEPES pH 7.5, 10 mM MgCl2, 1 mM EGTA, 2 mM DTT, 0.02% Brij35, 0.02 mg/mL BSA, 0.1 mM Na3VO4, 1% DMSO, 1.5 nM CDK2/Cyclin E1(14-475), 10 μM ATP, and 20 μM Histone H1 protein isolated from calf thymus (Sigma).
CDK2/Cyclin E1 […] and Histone H1 were mixed in reaction buffer. To this mixture, was added dose titrations of inhibitor compounds in 100% DMSO by acoustic transfer. The compound mixtures were incubated for 20 minutes, then the kinase reactions were initiated by the addition of a mixture of ATP and ^33P ATP for final concentrations of 10 μM total ATP, 20 μM Histone H1, and 1.5 nM CDK2/Cyclin E1 (14-475). The reactions were carried out for 120 minutes, then spotted on a P81 ion exchange filter paper, and extensively washed with 0.75% phosphoric acid. The resulting radioactive counts were normalized to yield % activity, plotted against compound concentration, and fit to a four-parameter equation to determine the IC50 for each compound.

| IC50 [2] [µM] | IC50 [4] [µM] | SMILES | GI50 ([1]; 72 h) [µM] | IC50 [3] [µM] | GI50 ([1]; 72 hours) [µM] |
| --- | --- | --- | --- | --- | --- |
| ≤ 0.5 |  | CNC(=O)C(NC(=O)C1CN(C(=O)Cc2c[nH]c3cc(Cl)ccc23)CC2CN(C(=O)c3ccc(OC(C)C)c(OC)c3)CC21)[C@H](C)OCc1ccccc1 (single isomer, unassigned) [I-145] | 1 to 10 | 0.5 to 5 |  |
| ≤ 0.5 |  | CNC(=O)[C@@H](NC(=O)C1CN(C(=O)Cc2c[nH]c3cc(Cl)ccc23)CC2CN(C(=O)c3ccc(OC(C)C)c(OC)c3)CC21)[C@H](C)OCc1ccccc1 (single isomer, unassigned) [I-146] | 10 to 20 | > 10 |  |
| > 10 |  | CNC(=O)[C@@H](NC(=O)C1CN(C(=O)Cc2c[nH]c3cc(Cl)ccc23)CC2CN(C(=O)c3ccc(OC(C)C)c(OC)c3)CC21)[C@H](C)OCc1ccccc1 (single isomer, unassigned) [I-147] |  | > 10 | > 20 |
| 0.5 to 5 |  | CNC(=O)[C@@H](NC(=O)C1CN(C(=O)Cc2c[nH]c3cc(Cl)ccc23)CC2CN(C(=O)c3ccc(OC(C)C)c(OC)c3)CC21)[C@H](C)OCc1ccccc1 (single isomer, unassigned) [I-148] |  | > 10 | > 20 |
| > 10 |  | COc1cc(C(=O)N2CC3CN(C(=O)Cc4c[nH]c5cc(Cl)ccc45)CC(C(=O)NCc4ccc(C)nn4)C3C2)ccc1OC(C)C (single isomer, unassigned) [I-261] | > 20 |  |  |
| > 10 |  | COc1cc(C(=O)N2CC3CN(C(=O)Cc4c[nH]c5cc(Cl)ccc45)CC(C(=O)NCc4ccc(C)nn4)C3C2)ccc1OC(C)C (single isomer, unassigned) [I-262] |  |  | > 20 |
|  | 10 to 100 | CNC(=O)[C@H](CCCc1ccccc1)NC(=O)C1CN(C(=O)Cc2c[nH]c3cc(Cl)ccc23)CC2CN(C(=O)c3ccc4[nH]c(C)cc4c3)CC21 (some centres unmarked) [I-2] |  | > 10 |  |
| > 10 | > 100 | CNC(=O)[C@H](CCCc1ccccc1)NC(=O)C1CN(C(=O)Cc2c[nH]c3cc(Cl)ccc23)CC2CN(C(=O)c3cc(-c4ccccc4)on3)CC21 (some centres unmarked) [I-13] |  | 5 to 10 |  |
|  | > 100 | CNC(=O)[C@H](CCCc1ccccc1)NC(=O)C1CN(C(=O)Cc2c[nH]c3cc(Cl)ccc23)CC2CN(C(=O)c3ccc4nccnc4c3)CC21 (some centres unmarked) [I-17] |  | > 10 |  |
| > 10 | ≤ 1 | CNC(=O)[C@H](CCCc1ccccc1)NC(=O)C1CN(C(=O)Cc2c[nH]c3cc(Cl)ccc23)CC2CN(C(=O)c3cc(-c4ccccc4)[nH]n3)CC21 (some centres unmarked) [I-19] |  | 0.5 to 5 |  |
|  | > 100 | CNC(=O)[C@H](CCCc1ccccc1)NC(=O)C1CN(C(=O)Cc2c[nH]c3cc(Cl)ccc23)CC2CN(C(=O)c3ccc(O)c(OC)c3)CC21 (some centres unmarked) [I-32] |  | > 10 |  |
|  | > 100 | CNC(=O)[C@H](CCCc1ccccc1)NC(=O)C1CN(C(=O)Cc2c[nH]c3cc(Cl)ccc23)CC2CN(C(=O)c3cccc(Oc4ccccc4)c3)CC21 (some centres unmarked) [I-35] |  | > 10 |  |
|  | > 100 | CNC(=O)[C@H](CCCc1ccccc1)NC(=O)C1CN(C(=O)Cc2c[nH]c3cc(Cl)ccc23)CC2CN(C(=O)c3cncc(OC)n3)CC21 (some centres unmarked) [I-42] |  | > 10 |  |
|  | 1 to 10 | CNC(=O)[C@H](CCCc1ccccc1)NC(=O)C1CN(C(=O)Cc2c[nH]c3cc(Cl)ccc23)CC2CN(C(=O)c3ccccc3)CC21 (some centres unmarked) [I-50] |  | > 10 |  |
|  | > 100 | CNC(=O)[C@H](CCCc1ccccc1)NC(=O)C1CN(C(=O)Cc2c[nH]c3cc(Cl)ccc23)CC2CN(C(=O)c3ccc4[nH]nnc4c3)CC21 (some centres unmarked) [I-62] |  | > 10 |  |
|  | 10 to 100 | CNC(=O)[C@H](CCCc1ccccc1)NC(=O)C1CN(C(=O)Cc2c[nH]c3cc(Cl)ccc23)CC2CN(C(=O)c3cnc4nccn4c3)CC21 (some centres unmarked) [I-64] |  | > 10 |  |
|  | 10 to 100 | CCOc1cccc(C(=O)N2CC3CN(C(=O)Cc4c[nH]c5cc(Cl)ccc45)CC(C(=O)N[C@@H](CCCc4ccccc4)C(=O)NC)C3C2)c1 (some centres unmarked) [I-67] |  |  |  |

| IC50 [2] [µM] | IC50 [4] [µM] | SMILES | GI50 ([1]; 72 h) [µM] | IC50 [3] [µM] | GI50 ([1]; 72 hours) [µM] |
| --- | --- | --- | --- | --- | --- |
|  | > 100 | CNC(=O)[C@H](CCCc1ccccc1)NC(=O)C1CN(C(=O)Cc2c[nH]c3cc(Cl)ccc23)CC2CN(C(=O)c3ccc4c(c3)OCCO4)CC21 (some centres unmarked) [I-77] |  | > 10 |  |
|  | 10 to 100 | CNC(=O)[C@H](CCCc1ccccc1)NC(=O)C1CN(C(=O)Cc2c[nH]c3cc(Cl)ccc23)CC2CN(C(=O)c3cc(C4CC4)on3)CC21 (some centres unmarked) [I-81] |  | > 10 |  |
| ≤ 0.5 |  | CNC(=O)[C@@H](NC(=O)C1CN(C(=O)Cc2c[nH]c3cc(Cl)ccc23)CC2CN(C(=O)c3ccc(OC(C)C)c(OC)c3)CC21)[C@H](C)OCc1ccccc1 (some centres unmarked) [I-106] | 1 to 10 | 0.5 to 5 |  |
|  | 10 to 100 | CNC(=O)[C@H](Cc1ccccc1)NC(=O)C1CN(C(=O)Cc2c[nH]c3cc(Cl)ccc23)CC2CN(C(=O)c3ccc(OC(C)C)c(OC)c3)CC21 (some centres unmarked) [I-122] |  |  |  |
|  | 10 to 100 | CNC(=O)[C@H](Cc1ccc(O)cc1)NC(=O)C1CN(C(=O)Cc2c[nH]c3cc(Cl)ccc23)CC2CN(C(=O)c3ccc(OC(C)C)c(OC)c3)CC21 (some centres unmarked) [I-123] |  |  |  |
|  | > 100 | CNC(=O)[C@@H](C)NC(=O)C1CN(C(=O)Cc2c[nH]c3cc(Cl)ccc23)CC2CN(C(=O)c3ccc(OC(C)C)c(OC)c3)CC21 (some centres unmarked) [I-124] |  | > 10 |  |
|  | 10 to 100 | CNC(=O)[C@H](C)NC(=O)C1CN(C(=O)Cc2c[nH]c3cc(Cl)ccc23)CC2CN(C(=O)c3ccc(OC(C)C)c(OC)c3)CC21 (some centres unmarked) [I-125] |  |  |  |
|  | > 100 | CNC(=O)[C@H](CCCc1ccccc1)NC(=O)C1CN(C(=O)Cc2c[nH]c3cccc(Cl)c23)CC2CN(C(=O)c3ccc(OC(C)C)c(OC)c3)CC21 (some centres unmarked) [I-221] |  | > 10 |  |
|  | 1 to 10 | CNC(=O)[C@H](CCCc1ccccc1)NC(=O)C1CN(C(=O)Cc2c[nH]c3c(Cl)cccc23)CC2CN(C(=O)c3ccc(OC(C)C)c(OC)c3)CC21 (some centres unmarked) [I-222] |  |  |  |
|  | 1 to 10 | CNC(=O)[C@H](CCCc1ccccc1)NC(=O)C1CN(C(=O)Cc2c[nH]c3cc(OC)ccc23)CC2CN(C(=O)c3ccc(OC(C)C)c(OC)c3)CC21 (some centres unmarked) [I-235] |  |  |  |
| > 10 |  | CNC(=O)[C@@H](NC(=O)C1CN(C(=O)Cc2c[nH]c3cc(Cl)ccc23)CC2CN(C(=O)c3cc(-c4ccccc4)n[nH]3)CC21)[C@H](C)OCC1CCCCC1 (stereo partly drawn) [I-249, 5-(2-(6-chloro-1H-indol-3-yl)acetyl)-N-((2S,3S)-3-(cyclohexylmethoxy)-1-(methylamino)-1-oxobutan-2-yl)-2-(3-phenyl-1H-pyrazole-5-carbonyl)octahydro-1H-pyrrolo[3,4-c]pyridine-7-carboxamide] |  | > 10 |  |
| 0.5 to 5 |  | CNC(=O)[C@@H](NC(=O)C1CN(C(=O)Cc2c[nH]c3cc(Cl)ccc23)CC2CN(C(=O)c3cc(-c4ccccc4)n[nH]3)CC21)[C@H](C)OCc1ccccc1 (some centres unmarked) [I-250] |  | > 10 |  |
| > 10 | > 100 | CNC(=O)[C@@H](NC(=O)C1CN(C(=O)Cc2c[nH]c3cc(Cl)ccc23)CC2CN(C(=O)c3cc(-c4ccccc4)n[nH]3)CC21)[C@@H](C)OCC1CCCCC1 (some centres unmarked) [I-251] |  | 5 to 10 |  |
| > 10 |  | CNC(=O)[C@@H](NC(=O)C1CN(C(=O)Cc2c[nH]c3cc(Cl)ccc23)CC2CN(C(=O)c3cc(-c4ccccc4)n[nH]3)CC21)[C@@H](C)OCc1ccccc1 (some centres unmarked) [I-252] |  | > 10 |  |
| > 10 |  | CNC(=O)[C@H](CCCc1ccccc1)NC(=O)C1CN(C(=O)Cc2ccnc3ccccc23)CC2CN(C(=O)c3ccc(OC(C)C)c(OC)c3)CC21 (stereo partly drawn) [I-253, 2-(4-isopropoxy-3-methoxybenzoyl)-N—((S)-1-(methylamino)-1-oxo-5-phenylpentan-2-yl)-5-(2-(quinolin-4-yl)acetyl)octahydro-1H-pyrrolo[3,4-c]pyridine-7-carboxamide] |  | > 10 |  |
| ≤ 0.5 |  | COC(=O)[C@@H](NC(=O)C1CN(C(=O)Cc2c[nH]c3cc(Cl)ccc23)CC2CN(C(=O)c3ccc(OC(C)C)c(OC)c3)CC21)[C@H](C)OCc1ccccc1 (stereo partly drawn) [I-255, methyl (2S,3S)-3-(benzyloxy)-2-(5-(2-(6-chloro-1H-indol-3-yl)acetyl)-2-(4-isopropoxy-3-methoxybenzoyl)octahydro-1H-pyrrolo[3,4-c]pyridine-7-carboxamido)butanoate] |  | 0.5 to 5 |  |
